Laboratory results as given in patent publication US11578084B2, “Condensed ring compounds having dopamine D3 receptor antagonistic effect” (Shionogi & Co., Ltd., priority 2018, dated 2023).
Read-outs that look alike come from different tables or passages of the source.

Experiments:
[1] = molecular target: human recombinant dopamine D2 receptor (Homo sapiens (Human), UniProt P14416); assay: Test of binding inhibition for dopamine D2 receptor ([3H]-Methylspiperone SPA); conditions: Jump-In HEK cell membranes, read-out: hD2_Ki
How it was run: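 Scintillation proximity competition binding of [3H]-Methylspiperone to Jump-In HEK membranes expressing human D2 (2 μg protein/well) on WGA SPA beads (0.2 mg/well), 120 min at 25° C.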

[2] = molecular target: human recombinant dopamine D3 receptor (Homo sapiens (Human), UniProt P35462); assay: Test of binding inhibition for dopamine D3 receptor ([3H]-Methylspiperone SPA); conditions: Jump-In HEK cell membranes, 2 nM [3H]-Methylspiperone, 120 min at 25° C.; read-out: hD3_Ki
How it was run: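 SPA radioligand binding on Jump-In HEK membranes expressing human D3 receptor (4 µg/well) with 2 nM [3H]-methylspiperone (final), incubated 120 min at 25 °C. Non-specific binding defined with 10 µM butaclamol. Percent inhibition computed against total and non-specific binding; Ki from dose-response curves.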

[3] = molecular target: human ether-a-go-go related gene (hERG) channel (Homo sapiens (Human), UniProt Q12809); assay: hERG test (whole cell patch clamp, IKr); type: cell-based; conditions: 3 μM, CHO cells expressing hERG, tail peak current
[4] = molecular target: human MDR1-expressing cells (Homo sapiens (Human), UniProt P08183); assay: P-gp substrate test (Transwell, MDR1-expressing cells vs parent cells); type: in vitro ADME; conditions: efflux ratio of MDR1-expressing cells compared with parent cells
Description: Test Example 14: P-Gp Substrate Test The compound of the present invention was added to one side of Transwell (registered trademark, CORNING) where human MDR1-expressing cells or parent cells have been monolayer-cultured. The cells were reacted for a constant time. The membrane permeability coefficients from the apical side toward the basolateral side (A→B) and from the basolateral side toward the apical side (B→A) were calculated for the MDR1-expressing cells or the parent cells, and the efflux ratio (ER; ratio of the membrane permeability coefficients of B→A and A→B) values of the MDR1-expressing cells and the parent cells were calculated. The efflux ratio (ER values) of the MDR1-expressing cells and the parent cells were compared to confirm whether or not the compound of the present invention would be a P-gp substrate.

[5] = molecular target: hERG channel (IKr) (Homo sapiens (Human), UniProt Q12809); assay: hERG test (whole cell patch clamp, IKr); type: cell-based; conditions: human, CHO cells expressing hERG channel, pH 7.4, 3 μM, tail peak current
[6] = Solubility test (1% DMSO addition, JP-1 fluid or JP-2 fluid); type: physicochemical; conditions: 25 °C, kinetic from dmso stock
Description: Test Example 11: Solubility Test The solubility of the compound of the present invention was determined under 1% DMSO addition conditions. A 10 mmol/L solution of the compound was prepared with DMSO. 2 μL of the solution of the compound of the present invention was respectively added to 198 μL of JP-1 fluid or JP-2 fluid, or 6 μL of the solution of the compound of the present invention was respectively added to 594 μL of JP-1 fluid or JP-2 fluid. The mixture was left standing for 16 hours at 25° C. (condition 1) or shaking at room temperature for 3 hours (condition 2), and the mixture was vacuum-filtered. The filtrates were diluted 10- or 100-fold with methanol/water=1/[…]) or acetonitrile/methanol/water=1/1/[…]/V), and concentrations in the filtrates were measured by the absolute calibration curve method using LC/MS or solid-phase extraction (SPE)/MS. The dilution rate or dilution solvent was changed as necessary. The composition of the JP-1 fluid was as below. Water was added to 2.0 g of sodium chloride and 7.0 mL of hydrochloric acid to reach 1000 mL. The composition of the JP-2 fluid was as below. Composition 1. 3.40 g of potassium dihydrogen phosphate and 3.55 g of anhydrous disodium hydrogen phosphate were dissolved in water to reach 1000 mL. Composition 2. 1 volume of water was added to 1 volume of the solution in which 3.40 g of potassium dihydrogen phosphate and 3.55 g of anhydrous disodium hydrogen phosphate were dissolved in water to reach 1000 mL.

[7] = 1.2 nM [3H]-Methylspiperone, 120 min at 25° C.
[8] = pH 1.2, simulated gastric fluid, JP-1 fluid, read-out: Solubility JP-1
[9] = pH 6.8, aqueous buffer, JP-2 fluid, read-out: Solubility JP-2

Sequence of human recombinant dopamine D2 receptor (P14416 whole entry): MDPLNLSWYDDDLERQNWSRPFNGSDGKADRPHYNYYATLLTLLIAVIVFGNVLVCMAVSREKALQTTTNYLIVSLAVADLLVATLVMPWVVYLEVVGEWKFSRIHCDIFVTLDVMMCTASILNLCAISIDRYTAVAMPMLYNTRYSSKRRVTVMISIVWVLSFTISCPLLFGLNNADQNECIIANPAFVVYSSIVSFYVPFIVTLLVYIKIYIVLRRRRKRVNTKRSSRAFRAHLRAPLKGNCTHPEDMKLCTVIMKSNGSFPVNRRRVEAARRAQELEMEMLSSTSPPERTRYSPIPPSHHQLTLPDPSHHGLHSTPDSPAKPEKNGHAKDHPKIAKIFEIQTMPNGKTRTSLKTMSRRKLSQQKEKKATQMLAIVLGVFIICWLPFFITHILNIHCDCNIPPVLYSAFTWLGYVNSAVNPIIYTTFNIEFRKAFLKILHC
Sequence of hERG channel (IKr) (Q12809 whole entry): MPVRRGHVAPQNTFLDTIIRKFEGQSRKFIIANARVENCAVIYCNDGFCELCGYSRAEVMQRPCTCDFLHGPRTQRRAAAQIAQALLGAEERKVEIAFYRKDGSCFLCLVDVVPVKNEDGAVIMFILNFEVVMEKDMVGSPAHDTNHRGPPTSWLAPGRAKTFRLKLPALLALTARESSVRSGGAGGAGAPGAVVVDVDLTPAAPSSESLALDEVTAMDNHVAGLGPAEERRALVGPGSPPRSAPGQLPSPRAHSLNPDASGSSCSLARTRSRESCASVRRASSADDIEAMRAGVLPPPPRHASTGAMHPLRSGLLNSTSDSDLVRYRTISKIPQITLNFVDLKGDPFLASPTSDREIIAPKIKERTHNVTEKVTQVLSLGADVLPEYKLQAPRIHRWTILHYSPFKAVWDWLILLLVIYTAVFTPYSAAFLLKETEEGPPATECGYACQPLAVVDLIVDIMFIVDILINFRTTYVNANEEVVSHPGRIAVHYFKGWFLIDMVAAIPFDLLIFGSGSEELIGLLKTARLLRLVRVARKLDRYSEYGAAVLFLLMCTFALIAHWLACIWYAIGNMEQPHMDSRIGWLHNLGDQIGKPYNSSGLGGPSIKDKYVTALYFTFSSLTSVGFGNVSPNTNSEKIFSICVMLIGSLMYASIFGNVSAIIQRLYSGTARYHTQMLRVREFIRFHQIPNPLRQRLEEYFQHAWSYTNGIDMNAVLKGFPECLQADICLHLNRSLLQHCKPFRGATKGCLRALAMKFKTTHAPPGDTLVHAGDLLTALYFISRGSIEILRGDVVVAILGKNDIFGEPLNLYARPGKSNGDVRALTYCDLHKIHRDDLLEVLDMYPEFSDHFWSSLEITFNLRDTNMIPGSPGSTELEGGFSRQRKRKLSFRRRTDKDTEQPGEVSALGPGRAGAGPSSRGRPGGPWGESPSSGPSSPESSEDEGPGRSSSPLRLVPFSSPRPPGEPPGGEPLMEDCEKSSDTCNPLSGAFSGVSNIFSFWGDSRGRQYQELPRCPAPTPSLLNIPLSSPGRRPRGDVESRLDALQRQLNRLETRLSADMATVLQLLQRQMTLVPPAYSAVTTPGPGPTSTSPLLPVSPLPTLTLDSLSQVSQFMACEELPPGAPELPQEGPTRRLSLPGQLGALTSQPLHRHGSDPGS
Sequence of human recombinant dopamine D3 receptor (P35462 whole entry): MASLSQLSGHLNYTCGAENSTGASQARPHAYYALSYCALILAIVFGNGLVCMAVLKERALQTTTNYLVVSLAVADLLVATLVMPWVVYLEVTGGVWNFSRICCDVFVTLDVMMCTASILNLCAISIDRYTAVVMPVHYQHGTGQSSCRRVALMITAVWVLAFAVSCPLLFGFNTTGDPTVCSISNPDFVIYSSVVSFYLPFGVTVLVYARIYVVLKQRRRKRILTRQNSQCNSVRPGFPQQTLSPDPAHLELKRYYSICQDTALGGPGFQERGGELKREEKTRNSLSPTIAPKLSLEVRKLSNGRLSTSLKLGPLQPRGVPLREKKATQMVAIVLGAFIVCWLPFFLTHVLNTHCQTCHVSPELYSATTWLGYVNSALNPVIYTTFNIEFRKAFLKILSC
Sequence of human MDR1-expressing cells (P08183 whole entry): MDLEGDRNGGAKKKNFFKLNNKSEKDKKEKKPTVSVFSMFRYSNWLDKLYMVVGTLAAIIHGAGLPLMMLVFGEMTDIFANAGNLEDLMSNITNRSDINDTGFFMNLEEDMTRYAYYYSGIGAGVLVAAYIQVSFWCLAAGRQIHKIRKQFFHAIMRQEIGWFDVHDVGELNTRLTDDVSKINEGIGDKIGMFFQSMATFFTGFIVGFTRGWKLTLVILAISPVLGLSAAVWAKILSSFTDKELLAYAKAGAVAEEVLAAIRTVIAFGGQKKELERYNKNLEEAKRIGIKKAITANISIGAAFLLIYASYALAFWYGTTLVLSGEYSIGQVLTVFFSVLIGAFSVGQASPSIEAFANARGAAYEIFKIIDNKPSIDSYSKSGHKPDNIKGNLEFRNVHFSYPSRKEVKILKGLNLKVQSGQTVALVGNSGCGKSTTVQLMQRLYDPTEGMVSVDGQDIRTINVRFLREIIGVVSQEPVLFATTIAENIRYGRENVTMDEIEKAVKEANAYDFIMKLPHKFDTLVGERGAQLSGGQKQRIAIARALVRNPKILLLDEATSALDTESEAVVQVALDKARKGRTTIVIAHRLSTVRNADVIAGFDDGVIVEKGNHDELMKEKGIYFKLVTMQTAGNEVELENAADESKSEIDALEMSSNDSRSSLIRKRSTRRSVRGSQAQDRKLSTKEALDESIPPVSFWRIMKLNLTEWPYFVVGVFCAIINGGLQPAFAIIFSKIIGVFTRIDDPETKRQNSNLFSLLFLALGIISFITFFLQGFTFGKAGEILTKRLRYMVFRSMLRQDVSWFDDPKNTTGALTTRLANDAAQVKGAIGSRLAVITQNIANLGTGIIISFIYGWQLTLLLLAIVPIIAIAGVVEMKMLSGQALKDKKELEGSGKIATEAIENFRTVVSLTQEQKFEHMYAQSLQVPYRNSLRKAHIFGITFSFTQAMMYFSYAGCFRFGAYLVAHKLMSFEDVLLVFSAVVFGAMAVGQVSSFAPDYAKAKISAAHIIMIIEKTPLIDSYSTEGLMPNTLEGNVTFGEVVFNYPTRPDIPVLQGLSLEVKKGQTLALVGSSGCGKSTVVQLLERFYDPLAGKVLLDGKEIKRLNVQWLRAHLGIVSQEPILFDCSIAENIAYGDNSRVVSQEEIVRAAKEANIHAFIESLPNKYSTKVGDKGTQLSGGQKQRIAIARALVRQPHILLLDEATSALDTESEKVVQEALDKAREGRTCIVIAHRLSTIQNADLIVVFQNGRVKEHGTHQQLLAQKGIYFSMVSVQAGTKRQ
Sequence of human ether-a-go-go related gene (hERG) channel (Q12809 whole entry): as the sequence (Q12809 whole entry) above

Row | Structure (SMILES) | Ki [1, 7] [nM] | Ki [2] [nM] | hERG inhibition(%) at 3 μM [3] [%] | P-gp ER ratio [4] | inhibition at 3 µM [5] [%] | Ki ([1]; [3H]-Methylspiperone 1.2 nM) [nM] | solubility [6, 8] [µM] | solubility [6, 9] [µM]
1 | CC(Oc1nc2c(s1)CCN(CC[C@H]1CC[C@H](NC(=O)c3cccc4nn(C)cc34)CC1)CC2)C(F)F (single isomer, unassigned) [Example I-119] | 1200 | 0.11 | 23.1 | – | – | – | – | –
2 | Cn1ncc(CC(=O)N[C@H]2CC[C@H](CCN3CCc4sc(OCC(C)(F)F)nc4C3)CC2)n1 [Example I-005] | 720 | 0.63 | – | 1.5 | 15.3 | – | – | –
3 | Cn1ncc(CC(=O)N[C@H]2CC[C@](F)(CCN3CCc4ccc(OCC(F)F)nc4CC3)CC2)n1 [Example I-031] | 800 | 0.19 | – | 1.5 | 23.8 | – | – | –
4 | Cc1ncc(CC(=O)N[C@H]2CC[C@H](CCN3CCc4nc(OCCC(F)(F)F)sc4CC3)CC2)o1 [Example I-102] | 670 | 0.13 | – | – | 32.2 | – | – | –
5 | Cn1cc2c(C(=O)N[C@H]3CC[C@H](CCN4CCc5sc(OCC(C)(F)F)nc5C4)CC3)c(F)ccc2n1 [Example I-103] | 340 | 0.17 | – | – | 26 | – | – | –
6 | Cn1cc(CC(=O)N[C@H]2CC[C@](F)(CCN3CCc4ccc(OC5CCC5)nc4CC3)CC2)cn1 [Example I-104] | > 2300 | 0.68 | – | – | 16.3 | – | – | –
7 | Cc1cnc(CC(=O)N[C@H]2CC[C@](F)(CCN3CCc4ccc(OC5CCC5)nc4CC3)CC2)o1 [Example I-105] | > 2300 | 0.96 | – | – | 30.1 | – | – | –
8 | Cc1nc(CC(=O)N[C@H]2CC[C@H](CCN3CCc4nc(OCC(F)(F)F)sc4CC3)CC2)n(C)n1 [Example I-107] | 1000 | 0.54 | – | – | 3.75 | – | – | –
9 | CC[C@@H](C)Oc1ccc2c(n1)CCN(CC[C@]1(F)CC[C@@H](NC(=O)Cc3nnc(C)o3)CC1)CC2 [Example I-108] | 1200 | 0.89 | – | – | 1.06 | – | – | –
10 | CC[C@@H](C)Oc1ccc2c(n1)CCN(CC[C@]1(F)CC[C@@H](NC(=O)Cc3nnc(C)s3)CC1)CC2 [Example I-109] | 610 | 0.26 | – | – | 27 | – | – | –
11 | CC[C@@H](C)Oc1ccc2c(n1)CCN(CC[C@H]1CC[C@H](NC(=O)Cc3cnn(C)n3)CC1)CC2 [Example I-111] | 1600 | 0.17 | – | – | 14.6 | – | – | –
12 | Cn1c(C(=O)N[C@H]2CC[C@](F)(CCN3CCc4nc(OCCC(F)(F)F)sc4CC3)CC2)cccc1=O [Example I-113] | > 2200 | 0.87 | – | – | 6.89 | – | – | –
13 | Cc1nc(CC(=O)N[C@H]2CC[C@](F)(CCN3CCc4nc(OCCC(F)(F)F)sc4CC3)CC2)no1 [Example I-114] | > 2200 | 0.59 | – | – | 29 | – | – | –
14 | COC(CN1CCc2sc(OCC(F)(F)F)nc2C1)[C@H]1CC[C@H](NC(=O)c2cccc3nn(C)cc23)CC1 (stereo partly shown) [Example I-186] | 270 | 0.22 | – | – | 16.8 | – | – | –
15 | Cn1cc2c(C(=O)NC34CCC(CCN5CCc6nc(OCC(F)(F)F)sc6CC5)(CC3)CC4)cccc2n1 [II-8] | – | 0.084 | – | – | – | 1600 | > 50 | > 50
16 | Cc1ncc(OCC(=O)NC23CCC(CCN4CCc5nc(OCC(F)(F)F)sc5CC4)(CC2)CC3)cn1 [II-9] | – | 0.12 | – | – | – | 960 | > 50 | > 50
17 | Cn1cc2c(C(=O)NC34CCC(CCN5CCc6nc(OCC(F)(F)F)sc6CC5)(CC3)OC4)cccc2n1 [II-11] | – | 0.23 | – | – | – | > 2300 | > 50 | > 50
18 | Cc1ncc(OCC(=O)NC23CCC(CCN4CCc5nc(OCC(F)(F)F)sc5CC4)(CC2)OC3)cn1 [II-12] | – | 0.49 | – | – | – | 1500 | > 50 | > 50
19 | Cn1ncc(CC(=O)N[C@H]2CC[C@](F)(CCN3CCc4nc(OCC(F)(F)F)sc4CC3)CC2)n1 [I′-37] | – | 0.18 | – | – | 19.6 | 1600 | – | –
20 | Cn1ncc(CC(=O)N[C@H]2CC[C@H](CCN3CCc4nc(OCC(C)(F)F)sc4CC3)CC2)n1 [I′-38] | – | 0.043 | – | – | 20.6 | 1000 | – | –
21 | Cn1ncc(CC(=O)N[C@H]2CC[C@](F)(CCN3CCc4nc(OCC(C)(F)F)sc4CC3)CC2)n1 [I′-39] | – | 0.49 | – | 1.9 | 17.3 | 960 | – | –
22 | Cn1ncc(CC(=O)N[C@H]2CC[C@](F)(CCN3CCc4nc(OCC(F)F)sc4CC3)CC2)n1 [I′-41] | – | 0.49 | – | – | 24 | 1900 | – | –
